{
  "source": "patent US20120077843A1",
  "about": "“MALIGNANT PRECURSOR CELLS FROM DUCTAL CARCINOMA IN SITU LESIONS” (George Mason Intellectual Properties, Inc., priority 2009, published 2012)",
  "key": {"human DCIS spheroids": {"tested_on": "human DCIS spheroids", "details": "for spheroid and 3-D structure formation (in words): DCIS organoid cultures, untreated up to 113 spheroids per duct organoid", "method": "Tissue collection. […] Gross tissue pathology at the time of procurement was assessed by a board certified pathologist. Tissue containing DCIS lesions was excised for further macrodissection and rinsed in sterile phosphate buffered saline to remove sentinel lymph node dye. Using sterile technique, ductal tissue was dissected from surrounding breast adipose/fibrous tissue. The ductal tissue was rinsed in serum free DMEM/F 12 medium (Invitrogen, Carlsbad, Calif., USA) supplemented with human recombinant EGF (10 ng/mL; Cell Signaling Technology, Danvers, Mass., USA or Millipore, Billerica, Mass., USA), insulin (10 μg/mL; Roche, Indianapolis, Ind., USA), streptomycin sulfate (100 μg/mL; Sigma, St. Louis, Mo., USA) and gentamicin sulfate (20 μg/mL; Sigma) prior to distribution in culture flasks (MidSci, St. Louis, Mo., USA). Ductal tissue was allowed to attach to the culture surface and observed daily for cellular outgrowths. Non-adherent organoids were removed from the culture flask.\n(§1) Organoid ex vivo culture. Dissected breast ductal tissue was grown in 115 cm^2 TPP reclosable flasks (MidSci) or 10 cm^2 culture tubes (MidSci) in serum free DMEM/F12 medium supplemented with human recombinant EGF (10 ng/mL), insulin (10 μg/mL), streptomycin sulfate (100 μg/mL) and gentamicin sulfate (20 μg/mL), with or without 0.36% (v/v) murine Engelbreth-Holm-Swarm (EHS) derived, growth factor reduced, basement membrane extract (Trevigen, Gaithersburg, Md., USA) at 37° C. in a humidified 5.0% CO2 atmosphere. Medium was replaced three times per week. Cultures were maintained continuously for up to one year. Periodically, organoids were removed, under microscopic visualization, for propagation into new culture flasks or phenotypic and molecular analysis.\n(§2) Pharmacological inhibition of autophagy. […] CO-containing medium was replaced three times per week for a period of 6 months.\n(§3) Statistics. The Student T-test, two tailed with Welch's correction, was used to calculate the p-value, and to determine the statistical difference of epithelial outgrowth area before and after CQ treatment. P values <0.05 were considered significant. Standard deviation (SO) or standard error of the mean (SEM) was calculated for group comparisons. Wilcoxon rank sum was used to determine the differences between CQ treated and untreated groups for the reverse phase protein arrays. A p=0.1 was considered different for small sample sizes."}, "[1]": {"tested_on": "autophagy associated signal pathway proteins in DCIS spheroids", "assay": "Cell signaling pathway mapping by reverse phase protein microarray (RPMA) of spheroids pre and post chloroquine", "type": "cell-based, human", "details": "for autophagy associated signal pathway proteins (Atg5, AKT, ERK, mTOR, IRS-1, p38 etc.) by RPMA: spheroids pre and post chloroquine phosphate 50 μM for 4 days, n=3", "method": "as §2, §3"}, "[2]": {"tested_on": "DCIS organoid culture spheroids", "assay": "Autophagosome lysosome imaging with LysoTracker Red", "type": "cell-based, human", "details": "chloroquine phosphate 50 μM for 2 weeks"}, "[3]": {"tested_on": "DCIS organoid cell cultures", "assay": "Histomorphology (H&E of FFPE sections) of chloroquine treated DCIS organoids", "type": "cell-based, human", "details": "for histology of intraductal epithelial cells / remaining adherent cells: chloroquine phosphate 50 μM, FIG. 14D", "method": "as §2\nImmunohistochemistry. Formalin fixed murine tissue or DCIS organoids were processed and paraffin embedded by commercial laboratories (AML Laboratories, Inc, Rosedale, Md. or Bi-Biomics, Nampa, Id.). Formalin fixed paraffin embedded (FFPE) tissue sections (5 μm or 1 μm thickness) mounted on positively charged glass slides were baked at 56° C. for 20 min., deparaffinized in xylene and rehydrated in a series of graded alcohols (100%, 95%, and 70%) with a final rinse in wash buffer (Dako, Carpinteria, Calif., USA). Antigen retrieval, when necessary, was performed with proteinase K or heat induced epitope retrieval. Immunostaining was performed on a Dako Autostainer with an Envision+HRP staining kit (Dako) per manufacturer's instructions. Stained tissue sections were counterstained with Hematoxylin (Dako), rinsed in distilled water and developed in Scott's Tap Water Substitute solution. Cover slips were applied using aqueous mounting medium (Faramount; Dako). Images were captured with an Olympus BX51 microscope using 4×, 10×, 20×, or 100× objectives."}, "[4]": {"tested_on": "DCIS malignant precursor cells", "assay": "Ex vivo invasion of autologous breast stroma in organoid culture", "type": "cell-based, human", "details": "chloroquine phosphate treated organ culture", "method": "as §1, §2"}, "[5]": {"details": "listed as chloroquine phosphate"}},
  "note": "Where two headings read alike, the source gives them in different places.",
  "data": [
    {"smiles": "CCN(CC)CCCC(C)Nc1ccnc2cc(Cl)ccc12", "note": "(stereo not shown) [chloroquine, N′-(7-chloroquinolin-4-yl)-N,N-diethyl-pentane-1,4-diamine]", "values": [
      {"measurement": "spheroid and 3-D structure formation (in words)", "setting": "human DCIS spheroids", "value": "zero for the majority of explants"},
      {"measurement": "spheroid and 3-D structure formation (in words)", "setting": "human DCIS spheroids; listed as CQ", "value": "virtually abolished"},
      {"measurement": "spheroid and 3-D structure formation (in words)", "setting": "human DCIS spheroids; [5]", "value": "completely suppressed"},
      {"measurement": "explants without any spheroids following chloroquine treatment", "setting": "human DCIS spheroids; case 09-148, 14 explants", "value": "12 out of 14"},
      {"measurement": "spheroids observed after treatment", "setting": "human DCIS spheroids; case 09-301, n=3, prior to treatment 20.5±7.8", "value": "no spheroids observed"},
      {"measurement": "inhibition of spheroid outgrowth, CQ in combination with tamoxifen", "setting": "human DCIS spheroids; cultured DCIS cells, combination with anti-estrogen compound (tamoxifen)", "value": "pronounced effect"},
      {"measurement": "apoptosis (elevation of cleaved PARP Asp214)", "setting": "[1]; as early as 48 hours post treatment", "value": "induced apoptosis"},
      {"measurement": "autophagy associated signal pathway proteins (Atg5, AKT, ERK, mTOR, IRS-1, p38 etc.) by RPMA", "setting": "[1]; listed as CQ", "value": "suppressed"},
      {"measurement": "autophagy associated signal pathway proteins (Atg5, AKT, ERK, mTOR, IRS-1, p38 etc.) by RPMA", "setting": "[1]; listed as Chloroquine", "value": "markedly inhibited"},
      {"measurement": "autophagy associated signal pathway proteins (Atg5, AKT, ERK, mTOR, IRS-1, p38 etc.) by RPMA", "setting": "[1]; [5]", "value": "suppressed autophagy associated proteins"},
      {"measurement": "spheroid integrity and LysoTracker Red distribution", "setting": "[2]", "value": "Dissociation of the spheroid, and diffuse accumulation of LysoTracker Red"},
      {"measurement": "histology of invading DCIS cells within the organoid", "setting": "[3]; 2 days post chloroquine treatment, 50 μM", "value": "Degeneration of the invading DCIS cells"},
      {"measurement": "histology of intraductal epithelial cells / remaining adherent cells", "setting": "[3]", "value": "Cellular swelling and apparent apoptotic death"},
      {"measurement": "histology of intraductal epithelial cells / remaining adherent cells", "setting": "[3]; listed as CQ", "value": "lysosomal engorgement"},
      {"measurement": "histology of DCIS organoid cultured with chloroquine long term", "setting": "[3]; cultured in the presence of chloroquine for 6 months, 50 μM", "value": "complete absence of cellular outgrowths"},
      {"measurement": "ex vivo invasion of autologous stroma", "setting": "[4]", "value": "suppressed ex vivo invasion"}
    ]}
  ]
}
